Data published in paper PMC3743159 (Chemmedchem, 2013).

Tested on: STS
Assay: not given
Conditions: read-out: STS IC50; placental microsome preparation; cited from earlier work

| SMILES | IC50 [nM] |
| --- | --- |
| C[C@]12CC[C@@H]3c4cc(C(F)F)c(OS(N)(=O)=O)cc4CC[C@H]3[C@@H]1CCC2=O [2-difluoromethyloestrone 3-O-sulfamate] | 0.1 |

Target: T1, STS (Homo sapiens, UniProt P08842)
T1 sequence (P08842 22-583): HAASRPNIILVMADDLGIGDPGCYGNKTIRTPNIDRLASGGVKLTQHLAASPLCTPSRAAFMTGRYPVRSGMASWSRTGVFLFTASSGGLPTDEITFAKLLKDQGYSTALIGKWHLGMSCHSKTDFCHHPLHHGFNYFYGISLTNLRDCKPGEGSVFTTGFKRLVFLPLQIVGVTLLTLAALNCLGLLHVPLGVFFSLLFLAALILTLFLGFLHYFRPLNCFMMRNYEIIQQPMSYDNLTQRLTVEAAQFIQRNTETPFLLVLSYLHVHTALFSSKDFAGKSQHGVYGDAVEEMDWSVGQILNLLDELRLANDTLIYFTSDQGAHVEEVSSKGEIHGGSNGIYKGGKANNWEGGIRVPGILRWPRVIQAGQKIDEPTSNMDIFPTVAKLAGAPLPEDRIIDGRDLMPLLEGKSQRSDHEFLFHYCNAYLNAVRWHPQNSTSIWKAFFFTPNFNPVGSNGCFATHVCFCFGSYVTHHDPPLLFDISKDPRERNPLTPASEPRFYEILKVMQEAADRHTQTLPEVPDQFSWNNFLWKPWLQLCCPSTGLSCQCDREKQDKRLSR
Assay: In vitro inhibition of STS
Type: cell-based
Conditions: STS IC50, JEG-3 cell preparation; sulfamates

| SMILES | IC50 [nM] |
| --- | --- |
| NS(=O)(=O)Oc1ccc(CN(c2ccc3c(c2)OC(F)(F)O3)n2cnnc2)cc1 [Compound 22, 4-{[(2,2-Difluorobenzo[d][1,3]dioxol-5-yl)(4H-1,2,4-triazol-4-yl)amino]methyl}phenyl sulfamate] | 52 ± 6.6 |
| N#Cc1ccc(N(Cc2ccc(OS(N)(=O)=O)cc2Cl)n2cnnc2)cc1 [Compound 17, 3-Chloro-4-{[(4-cyanophenyl)(4H-1,2,4-triazol-4-yl)amino]methyl}phenyl sulfamate] | 40 ± 5 |
| N#Cc1ccc(N(Cc2ccc(OS(N)(=O)=O)cc2F)n2cnnc2)cc1 [Compound 11, 4-{[(4-Cyanophenyl)(4H-1,2,4-triazol-4-yl)amino]methyl}-3-fluorophenyl sulfamate] | 21 ± 3.5 |
| N#Cc1ccc(N(Cc2ccc(OS(N)(=O)=O)c(F)c2F)n2cnnc2)cc1 [Compound 13, 4-{[(4-Cyanophenyl)(4H-1,2,4-triazol-4-yl)amino]methyl}-2,3-difluorophenyl sulfamate] | 48 ± 2 |
| NS(=O)(=O)Oc1ccc(CN(c2cc(F)cc(F)c2)n2cnnc2)cc1 [Compound 21, 4-{[(3,5-Difluorophenyl)(4H-1,2,4-triazol-4-yl)amino]methyl}phenyl sulfamate] | 45 ± 5 |
| N#Cc1ccc(N(Cc2ccc(OS(N)(=O)=O)cc2Br)n2cnnc2)cc1 [Compound 19, 3-Bromo-4-{[(4-cyanophenyl)(4H-1,2,4-triazol-4-yl)amino]methyl}phenyl sulfamate] | 29 ± 2 |
| N#Cc1ccc(N(Cc2c(F)cc(OS(N)(=O)=O)cc2F)n2cnnc2)cc1 [Compound 12, 4-{[(4-Cyanophenyl)(4H-1,2,4-triazol-4-yl)amino]methyl}-3,5-difluorophenyl sulfamate] | 39 ± 1 |
| N#Cc1ccc(N(Cc2c(Cl)cc(OS(N)(=O)=O)cc2Cl)n2cnnc2)cc1 [Compound 18, 3,5-Dichloro-4-{[(4-cyanophenyl)(4H-1,2,4-triazol-4-yl)amino]methyl}phenyl sulfamate] | 44 ± 6 |
| N#Cc1ccc(N(Cc2ccc(OS(N)(=O)=O)c(C(F)F)c2)n2cnnc2)cc1 [Compound 15, 4-{[(4-Cyanophenyl)(4H-1,2,4-triazol-4-yl)amino]methyl}-2-(difluoromethyl)phenyl sulfamate] | 60 ± 2.4 |
| NS(=O)(=O)Oc1ccc(CN(c2ccccc2)n2cnnc2)cc1 [Compound 20, 4-{[Phenyl(4H-1,2,4-triazol-4-yl)amino]methyl}phenyl sulfamate] | 1560 ± 116 |

Tested on: not given
Assay: not given
Conditions: not given

| SMILES | melting point [°C] |
| --- | --- |
| Oc1ccc(CN(c2ccc3c(c2)OC(F)(F)O3)n2cnnc2)cc1 [Compound 22 e, 4-{[(2,2-Difluorobenzo[1,3]dioxol-5-yl)-[1,2,4]triazol-4-ylamino]methyl}phenol] | 182 to 185 |
